Values quoted from earlier work in US5204349A, “Amide-substituted derivatives of spiroindanylcamphorsulfonyl oxytocin antagonists” (priority 1991, dated 1993).
Read-outs that look alike come from different tables or passages of the source.

Tests used:
[1] = compared with ritodrine
[2] = tocolytic use, mother and infant

## CC(NCCc1ccc(O)cc1)C(O)c1ccc(O)cc1 (stereo not drawn) [Ritodrine]
[2]
  side effects: causes a number of cardiovascular and metabolic side effects in the mother, including tachycardia, increased renin secretion, hyperglycemia (and reactive hypoglycemia in the infant)

## O=S(=O)([O-])[O-].[Mg+2] [Magnesium sulfate]
Plasma concentrations above 4 to 8 mg/dL
  adverse effects at plasma concentrations above the therapeutic range: can cause inhibition of cardiac conduction and neuromuscular transmission, respiratory depression and cardiac arrest

## CC(C)(C)NCC(O)c1cc(O)cc(O)c1 (stereo not drawn) [terbutaline]
[2]
  side effects: side effects similar to those of ritodrine

## CC(C)(C)NCC(O)c1ccc(O)c(CO)c1 (stereo not drawn) [albuterol]
In vivo
  side effects: side effects similar to those of ritodrine

## CCO [Ethanol]
[1]
  effectiveness in preventing premature labor: as effective as ritodrine in preventing premature labor
  reduction in the incidence of fetal respiratory distress: does not produce a corresponding reduction in the incidence of fetal respiratory distress that administration of ritodrine does
